Several values for one entry are separate records, joined by “and”; a condition that tells them apart may be missing. Equal entries are not always repeated. Inconclusive results and toxic doses are left out.
System: L1210 leukemia ip in BDF1 mice, survival T/C
Test: NCI In Vivo Anticancer Drug Screen. Data for tumor model L1210 Leukemia (intraperitoneal) in B6D2F1 (BDF1) mice
Conditions: higher = longer survival
In short: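 Antitumor effect is assessed in tumor-bearing animals. Survival in the compound arm is compared with a vehicle-dosed control arm and expressed as their quotient.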

Which results are given for `Nc1nc(=S)c2[nH]cnc2[nH]1`?
T/C (endpoint: mean survival time, dose: 0.04 mg/kg/injection, schedule: Q01DX Z (ip), vehicle: carboxymethylcellulose (CMC)): 113 % of control; T/C (endpoint: mean survival time, dose: 0.06 mg/kg/injection, schedule: Q01DX009 (ip), vehicle: alkali diluted with saline): 106 % of control and 108 % of control; T/C (endpoint: mean survival time, dose: 0.06 mg/kg/injection, schedule: Q01DX Z (ip), vehicle: carboxymethylcellulose (CMC)): 105 % of control; T/C (endpoint: mean survival time, dose: 0.06 mg/kg/injection, schedule: Q#A X Z (ip), vehicle: saline): 121 % of control; T/C (endpoint: mean survival time, dose: 0.09 mg/kg/injection, schedule: Q01DX Z (ip), vehicle: carboxymethylcellulose (CMC)): 109 % of control; T/C (endpoint: mean survival time, dose: 0.12 mg/kg/injection, schedule: Q01DX009 (ip), vehicle: alkali diluted with saline): 111 % of control; T/C (endpoint: mean survival time, dose: 0.13 mg/kg/injection, schedule: Q01DX Z (ip), vehicle: saline): 111 % of control; T/C (endpoint: mean survival time, dose: 0.13 mg/kg/injection, schedule: Q01DX Z (sc), vehicle: saline): 107 % of control; T/C (endpoint: mean survival time, dose: 0.14 mg/kg/injection, schedule: Q01DX Z (ip), vehicle: carboxymethylcellulose (CMC)): 110 % of control; T/C (endpoint: mean survival time, dose: 0.22 mg/kg/injection, schedule: Q01DX Z (ip), vehicle: carboxymethylcellulose (CMC)): 115 % of control; T/C (endpoint: mean survival time, dose: 0.22 mg/kg/injection, schedule: Q07DX003 (ip), vehicle: saline): 113 % of control; T/C (endpoint: mean survival time, dose: 0.25 mg/kg/injection, schedule: Q01DX Z (sc), vehicle: saline): 116 % of control; T/C (endpoint: mean survival time, dose: 0.33 mg/kg/injection, schedule: Q01DX015 (ip), vehicle: alkali diluted with saline): 102 % of control; T/C (endpoint: mean survival time, dose: 0.33 mg/kg/injection, schedule: Q01DX Z (ip), vehicle: carboxymethylcellulose (CMC)): 119 % of control; T/C (endpoint: mean survival time, dose: 0.37 mg/kg/injection, schedule: Q03DX006 (ip), vehicle: saline): 114 % of control; T/C (endpoint: mean survival time, dose: 0.43 mg/kg/injection, schedule: Q01DX009 (ip), vehicle: alkali diluted with saline): 152 % of control; T/C (endpoint: mean survival time, dose: 0.44 mg/kg/injection, schedule: Q07DX003 (ip), vehicle: saline): 122 % of control; T/C (endpoint: mean survival time, dose: 0.5 mg/kg/injection, schedule: Q01DX006 (iv), vehicle: saline): 106 % of control; T/C (endpoint: mean survival time, dose: 0.5 mg/kg/injection, schedule: Q01DX Z (im), vehicle: saline): 109 % of control; T/C (endpoint: mean survival time, dose: 0.5 mg/kg/injection, schedule: Q01DX Z (ip), vehicle: carboxymethylcellulose (CMC)): 111 % of control; T/C (endpoint: mean survival time, dose: 0.5 mg/kg/injection, schedule: Q01DX Z (oral), vehicle: saline): 113 % of control; T/C (endpoint: mean survival time, dose: 0.55 mg/kg/injection, schedule: Q01DX015 (ip), vehicle: alkali diluted with saline): 151 % of control; T/C (endpoint: mean survival time, dose: 0.55 mg/kg/injection, schedule: Q## X015 (ip), vehicle: alkali diluted with saline): 151 % of control; T/C (endpoint: mean survival time, dose: 0.75 mg/kg/injection, schedule: Q03DX006 (ip), vehicle: saline): 118 % of control; T/C (endpoint: mean survival time, dose: 0.88 mg/kg/injection, schedule: Q01DX001 (ip), vehicle: saline): 115 % of control; T/C (endpoint: mean survival time, dose: 0.88 mg/kg/injection, schedule: Q03HX016 (ip), vehicle: alkali diluted with saline): 150 % of control; T/C (endpoint: mean survival time, dose: 0.88 mg/kg/injection, schedule: Q03HX024 (ip), vehicle: alkali diluted with saline): 152 % of control; T/C (endpoint: mean survival time, dose: 0.9 mg/kg/injection, schedule: Q01DX015 (ip), vehicle: alkali diluted with saline): 152 % of control; T/C (endpoint: mean survival time, dose: 1.0 mg/kg/injection, schedule: Q01DX006 (iv), vehicle: saline): 112 % of control; T/C (endpoint: mean survival time, dose: 1.0 mg/kg/injection, schedule: Q01DX Z (ip), vehicle: carboxymethylcellulose (CMC)): 152 % of control; T/C (endpoint: mean survival time, dose: 1.0 mg/kg/injection, schedule: Q01DX Z (oral), vehicle: saline): 116 % of control; T/C (endpoint: mean survival time, dose: 1.2 mg/kg/injection, schedule: Q03HX032 (ip), vehicle: alkali diluted with saline): 151 % of control and 152 % of control; T/C (endpoint: mean survival time, dose: 1.5 mg/kg/injection, schedule: Q03DX006 (ip), vehicle: saline): 154 % of control; T/C (endpoint: mean survival time, dose: 1.75 mg/kg/injection, schedule: Q01DX001 (ip), vehicle: saline): 109 % of control; T/C (endpoint: mean survival time, dose: 1.8 mg/kg/injection, schedule: Q04DX002 (ip), vehicle: alkali diluted with saline): 110 % of control; T/C (endpoint: mean survival time, dose: 2.0 mg/kg/injection, schedule: Q01DX Z (sc), vehicle: saline): 153 % of control; T/C (endpoint: mean survival time, dose: 2.5 mg/kg/injection, schedule: Q01DX010 (ip), vehicle: other): 123 % of control; T/C (endpoint: mean survival time, dose: 3.5 mg/kg/injection, schedule: Q01DX001 (ip), vehicle: saline): 109 % of control and 120 % of control; T/C (endpoint: mean survival time, dose: 3.5 mg/kg/injection, schedule: Q04DX008 (ip), vehicle: alkali diluted with saline): 154 % of control; T/C (endpoint: mean survival time, dose: 3.7 mg/kg/injection, schedule: Q01DX Z (ip), vehicle: carboxymethylcellulose (CMC)): 110 % of control; T/C (endpoint: mean survival time, dose: 4.0 mg/kg/injection, schedule: Q01DX Z (im), vehicle: saline): 119 % of control; T/C (endpoint: mean survival time, dose: 4.0 mg/kg/injection, schedule: Q01DX Z (ip), vehicle: carboxymethylcellulose (CMC)): 93 % of control; T/C (endpoint: mean survival time, dose: 4.0 mg/kg/injection, schedule: Q01DX Z (sc), vehicle: saline): 106 % of control; T/C (endpoint: mean survival time, dose: 5.0 mg/kg/injection, schedule: Q01DX010 (ip), vehicle: other): 98 % of control and 104 % of control; T/C (endpoint: mean survival time, dose: 5.3 mg/kg/injection, schedule: Q04DX012 (ip), vehicle: alkali diluted with saline): 153 % of control; T/C (endpoint: mean survival time, dose: 6.0 mg/kg/injection, schedule: Q01DX Z (ip), vehicle: carboxymethylcellulose (CMC)): 98 % of control; T/C (endpoint: mean survival time, dose: 7.0 mg/kg/injection, schedule: Q01DX001 (ip), vehicle: saline): 104 % of control and 122 % of control; T/C (endpoint: mean survival time, dose: 8.0 mg/kg/injection, schedule: Q01DX Z (ip), vehicle: carboxymethylcellulose (CMC)): 106 % of control; T/C (endpoint: mean survival time, dose: 8.0 mg/kg/injection, schedule: Q04DX008 (ip), vehicle: alkali diluted with saline): 154 % of control; T/C (endpoint: mean survival time, dose: 8.0 mg/kg/injection, schedule: Q07DX008 (ip), vehicle: alkali diluted with saline): 153 % of control; T/C (endpoint: mean survival time, dose: 8.3 mg/kg/injection, schedule: Q01DX Z (ip), vehicle: carboxymethylcellulose (CMC)): 94 % of control; T/C (endpoint: mean survival time, dose: 9.0 mg/kg/injection, schedule: Q01DX Z (ip), vehicle: carboxymethylcellulose (CMC)): 96 % of control; T/C (endpoint: mean survival time, dose: 10.0 mg/kg/injection, schedule: Q01DX010 (ip), vehicle: other): 115 % of control; T/C (endpoint: mean survival time, dose: 12.0 mg/kg/injection, schedule: Q04DX004 (ip), vehicle: alkali diluted with saline): 152 % of control; T/C (endpoint: mean survival time, dose: 12.0 mg/kg/injection, schedule: Q04DX006 (ip), vehicle: alkali diluted with saline): 151 % of control; T/C (endpoint: mean survival time, dose: 13.0 mg/kg/injection, schedule: Q01DX001 (ip), vehicle: carboxymethylcellulose (CMC)): 152 % of control; T/C (endpoint: mean survival time, dose: 16.0 mg/kg/injection, schedule: Q01DX Z (sc), vehicle: saline): 106 % of control; T/C (endpoint: mean survival time, dose: 20.0 mg/kg/injection, schedule: Q01DX001 (ip), vehicle: alkali diluted with saline): 153 % of control; T/C (endpoint: mean survival time, dose: 20.0 mg/kg/injection, schedule: Q04DX003 (ip), vehicle: alkali diluted with saline): 154 % of control; T/C (endpoint: mean survival time, dose: 24.0 mg/kg/injection, schedule: Q03DX006 (ip), vehicle: saline): 107 % of control; T/C (endpoint: mean survival time, dose: 24.0 mg/kg/injection, schedule: Q07DX003 (ip), vehicle: saline): 152 % of control; T/C (endpoint: mean survival time, dose: 24.0 mg/kg/injection, schedule: Q## X008 (ip), vehicle: alkali diluted with saline): 116 % of control; T/C (endpoint: mean survival time, dose: 24.0 mg/kg/injection, schedule: Q## X024 (ip), vehicle: alkali diluted with saline): 102 % of control; T/C (endpoint: mean survival time, dose: 27.0 mg/kg/injection, schedule: Q07DX004 (ip), vehicle: alkali diluted with saline): 153 % of control; T/C (endpoint: mean survival time, dose: 30.0 mg/kg/injection, schedule: Q04DX003 (ip), vehicle: alkali diluted with saline): 150 % of control; T/C (endpoint: mean survival time, dose: 36.0 mg/kg/injection, schedule: Q## X016 (ip), vehicle: alkali diluted with saline): 105 % of control; T/C (endpoint: mean survival time, dose: 36.0 mg/kg/injection, schedule: Q## X024 (ip), vehicle: alkali diluted with saline): 98 % of control; T/C (endpoint: mean survival time, dose: 40.0 mg/kg/injection, schedule: Q07DX004 (ip), vehicle: alkali diluted with saline): 152 % of control; T/C (endpoint: mean survival time, dose: 50.0 mg/kg/injection, schedule: Q01DX001 (ip), vehicle: saline): 118 % of control; T/C (endpoint: mean survival time, dose: 54.0 mg/kg/injection, schedule: Q## X008 (ip), vehicle: alkali diluted with saline): 105 % of control; T/C (endpoint: mean survival time, dose: 54.0 mg/kg/injection, schedule: Q## X016 (ip), vehicle: alkali diluted with saline): 97 % of control; T/C (endpoint: mean survival time, dose: 60.0 mg/kg/injection, schedule: Q07DX004 (ip), vehicle: alkali diluted with saline): 152 % of control; T/C (endpoint: mean survival time, dose: 67.0 mg/kg/injection, schedule: Q01DX001 (ip), vehicle: alkali diluted with saline): 152 % of control; T/C (endpoint: mean survival time, dose: 80.0 mg/kg/injection, schedule: Q01DX001 (ip), vehicle: alkali diluted with saline): 150 % of control; T/C (endpoint: mean survival time, dose: 90.0 mg/kg/injection, schedule: Q07DX004 (ip), vehicle: alkali diluted with saline): 120 % of control; T/C (endpoint: mean survival time, dose: 90.0 mg/kg/injection, schedule: Q07DX006 (ip), vehicle: alkali diluted with saline): 118 % of control; T/C (endpoint: mean survival time, dose: 96.0 mg/kg/injection, schedule: Q07DX003 (ip), vehicle: saline): 103 % of control; T/C (endpoint: mean survival time, dose: 100.0 mg/kg/injection, schedule: Q01DX001 (ip), vehicle: alkali diluted with saline): 150 % of control; T/C (endpoint: mean survival time, dose: 100.0 mg/kg/injection, schedule: Q01DX001 (ip), vehicle: saline): 112 % of control; T/C (endpoint: mean survival time, dose: 106.0 mg/kg/injection, schedule: Q04DX002 (ip), vehicle: alkali diluted with saline): 98 % of control; T/C (endpoint: mean survival time, dose: 112.0 mg/kg/injection, schedule: Q01DX001 (ip), vehicle: saline): 98 % of control; T/C (endpoint: mean survival time, dose: 150.0 mg/kg/injection, schedule: Q01DX001 (ip), vehicle: alkali diluted with saline): 103 % of control; T/C (endpoint: mean survival time, dose: 448.0 mg/kg/injection, schedule: Q01DX001 (ip), vehicle: saline): 119 % of control; T/C (endpoint: mean survival time, dose: 16.0 micrograms/kg/injection, schedule: Q01DX015 (ip), vehicle: alkali diluted with saline): 100 % of control; T/C (endpoint: mean survival time, dose: 32.0 micrograms/kg/injection, schedule: Q01DX015 (ip), vehicle: alkali diluted with saline): 107 % of control; T/C (endpoint: mean survival time, dose: 63.0 micrograms/kg/injection, schedule: Q01DX015 (ip), vehicle: alkali diluted with saline): 107 % of control; T/C (endpoint: mean survival time, dose: 125.0 micrograms/kg/injection, schedule: Q01DX015 (ip), vehicle: alkali diluted with saline): 116 % of control; T/C (endpoint: mean survival time, dose: 196.0 micrograms/kg/injection, schedule: Q01DX Z (ip), vehicle: carboxymethylcellulose (CMC)): 122 % of control; T/C (endpoint: mean survival time, dose: 250.0 micrograms/kg/injection, schedule: Q01DX015 (ip), vehicle: alkali diluted with saline): 103 % of control; T/C (endpoint: median survival time, dose: 4.0 mg/kg/injection, schedule: Q01DX009 (ip), vehicle: other): 150 % of control; T/C (endpoint: median survival time, dose: 16.0 mg/kg/injection, schedule: Q01DX009 (ip), vehicle: other): 116 % of control
